Source: US12590061B2, “Crystalline form of acetylcholinesterase inhibitor and preparation method therefor and application thereof” (SHANGHAI INSTITUTE OF MATERIA MEDICA, CHINESE ACADEMY OF …, priority 2019, dated 2026)
In brackets after ≈: the same amount, converted by molar mass. Like-named read-outs stand apart in the source and are kept apart here.

Key:
Assay type in all cases: physicochemical
[1] = Crystal transformation experiment (suspension stirring, XRPD)
Procedure: Form A and Form B were mixed in equal amounts, and mixed in EA/Hep(1:1) to give a suspension, and XRPD test is performed after stirring at normal temperature (25° C.) for three days.

[2] = Solubility experiment of each crystalline form in water
[3] = Dynamic Vapor Sorption (DVS) / hygroscopicity test; settings: for Humidity change (DVS): within the conventional storage humidity range
Procedure: Dynamic Vapor Sorption (DVS) test/Hygroscopicity test is a rapid measurement of the increase and loss of sample moisture caused by a flowing carrier gas with a set relative humidity (RH). The hygroscopicity of the sample is then determined by measuring the increase/decrease in the mass of the material to detect the adsorption/desorption of water vapor on a high-sensitivity, high-stability digital microbalance in a self-suspended state.
In the present invention, the test parameters of DVS are as follows: instrument model: SMS DVS Intrinsic; measurement temperature 25° C., 0-95% RH.

SMILES	Stability order of the three crystalline forms [1]	Solubility ([2]; Pure water) [µg/mL]	Solubility ([2]; water, pH 2.01, aqueous buffer, thermodynamic from solid, pH 2.01, read-out: Solubility) [µg/mL]	Solubility ([2]; water, pH 4.59, aqueous buffer, thermodynamic from solid, pH 4.59, read-out: Solubility) [µg/mL]	Solubility ([2]; water, pH 6.74, aqueous buffer, thermodynamic from solid, pH 6.74, read-out: Solubility) [µg/mL]	Change in hygroscopicity (weight change, DVS) ([3]; 0-95% relative humidity, 25° C.)	Solubility ([2]; pH 2.01) [µg/mL]	Solubility ([2]; pH 4.59) [µg/mL]	Solubility ([2]; pH 6.74) [µg/mL]	Humidity change (DVS) [3] [%]	Crystal form transformation ([1]; metastable crystalline)	Solubility compared with other form ([2]; in water, Form C becomes Form B after being transformed)
COc1cc2c(cc1OC)C(=O)C(CC1(F)CCN(Cc3ccccc3F)CC1)C2 (single isomer, unassigned) [Form A]	Form A>Form B>Form C	140 (≈ 0.337 mM)	12400 (≈ 29.7 mM)	1860 (≈ 4.48 mM)	140 (≈ 0.337 mM)	about 0.6%	–	–	–	–	–	–
COc1cc2c(cc1OC)C(=O)C(CC1(F)CCN(Cc3ccccc3F)CC1)C2 (single isomer, unassigned) [Form B]	Form A>Form B>Form C	8.9 (≈ 0.0214 mM)	–	–	–	–	20500 (≈ 49.3 mM)	2790 (≈ 6.72 mM)	180 (≈ 0.433 mM)	1	–	–
COc1cc2c(cc1OC)C(=O)C(CC1(F)CCN(Cc3ccccc3F)CC1)C2 (single isomer, unassigned) [Form C]	Form A>Form B>Form C	–	–	–	–	–	–	–	–	1.2	transfers to Form B	the same as Form B
